Series [1] has as its system tNhtt-150Q aggregates in Neuro2a cells. Put plainly: Blocking of UPS / macroautophagy on benzamil's disaggregating effect. In kind it is cell-based, mouse. Here is the method: (a) The UPS blocking remarkably abolished the effect of benzamil. In addition to the ponasterone A induction of tNhtt-150Q, Neuro2a cells were incubated with benzamil and proteasome inhibitor, i.e., lactacystin or MG-132, at two different concentrations. Lactacystin or MG-132 was also used as a control in the absence of benzamil. Lactacystin or MG-132 remarkably reversed and abolished the disaggregating effect of benzamil. […] MEF was incubated with 1 ng/ml doxycycline for 5 days, and polyQ of various lengths (+/−nls) was transiently transfected.
From the evidence obtained hitherto, it was not possible to exclude the possibility that autophagy, in company with UPS or secondary to UPS, […] in the degradation of soluble or aggregated tNhtt-polyQ by benzamil. To investigate whether or not other degradation pathways play a major role in the degradation of tNhtt-polyQ by benzamil, first, the proteasome pathway was blocked by a specific proteasome inhibitor, i.e., lactacystin or MG-132, and the number of tNhtt-polyQ aggregates under these experiment conditions was quantified. […] To further exclude the possibility that macroautophagy plays an important role in the benzamil-mediated tNhtt-polyQ clearance, used was a stable mouse embryonic fibroblast (MEF) cell line in which expression of autophagy gene 5 (Atg5) can be readily manipulated by addition of tetracycline. […] 2623-9 (2006)]. Truncated Nhtt-polyQ was transfected into the MEF that had been treated with doxycycline for 5 days, and then benzamil was added for 18 hr.

For series [2], the system named is ubiquitin proteasome system (UPS) in Neuro2a cells. Put plainly: ubi-dsRED reporter of proteasome activity under MG-132 block. To be noted: increasing MG-132 concentration.
Procedure: DNA was transiently transfected into the Neuro2a cells using Lipofectamine 2000 (Invitrogen) according to the instruction manual. Generally, for the transient expression of tNhtt-polyQ and ubi-dsRED (or RFP), DNA was transfected in amounts of 200 ng and 70 ng, respectively. Cells were transfected for 5 hr, and the media were replaced for the subsequent treatment.
To quantify the percentage of aggregate, the number of RFP or ubi-dsRED cells or the ubi-dsRED intensity, used was an automated fluorescence microscopic imaging system (ArrayScan® VTI HCS Reader) equipped with image analysis modules (BioApplications) that automatically convert images into numerical data for capturing changes in cell size, shape, intensity and other properties thereof in a culturing format. […] To quantify the percentage of aggregates in the cells, in the first protocol, the number of EGFP-positive spots in each field was counted, and in the second protocol, the number of Hoechst-positive nuclei was counted in the same field. On the other hand, the quantification of RFP/ubi-dsRED cells could be achieved by a one scanning protocol. […] Generally, 30,000-50,000 cells were scanned in each well (about 200 scanning fields), and quantification data of at least 200,000 cells in each experiment setting were generated by ArrayScan®.
Series [3] deals with tNhtt-polyQ-EGFP aggregates in Neuro2a cells. Put plainly: tNhtt-polyQ-EGFP aggregates in ponasterone A-inducible Neuro2a cells, ArrayScan quantification. In kind it is cell-based, mouse. The procedure:
; polyQ, 60 or 150 polyglutamine repeats) is induced by 1 μM ponasterone A and which that can differentiate into neuronal phenotype cells in response to treatment with 5 mM N6,2′-O-dibutyryladenosine-3′,5′-cyclic monophosphate sodium salt (dbcAMP) [Wang, G. H. et al. Neuroreport 10, 2435-8 (1999)]. […] To eliminate the possibility of Ami and Ben decreasing aggregates by interfering with the ponasterone A-inducible system, native Neuro2a cells were transfected with an expression plasmid having 62 or 150 polyglutamine repeats in the presence or absence of a nuclear localization signal peptide (FIG. 2d).

The test system of series [4] is Neuro2a cells. The series is described as follows: Cell death by proprium iodide (PI) staining. In kind it is cell-based. The source says:
; *** and ****p<0.0001. […] . […] . […] .

Series [5] has as its system SDS-resistant tNhtt-polyQ aggregates. Put plainly: Filter trap assay of SDS-resistant aggregates in cell lysates. In kind it is cell-based, mouse. To be noted: Neuro2a lysates, 2% SDS. Here is the method:
A filter trap assay was performed with a Hybri-Dot manifold (BIO-RAD) and a cellulose acetate membrane filter having a pore size of […] (Advantec). Concisely stated, cells ready for analysis were lysed in the same lysis buffer as that used for the Western blot and sonicated briefly, and the protein concentration were quantified according to the above-mentioned BCA method. For a brain sample, brain tissues were initially homogenized 10 strokes at 1500 rpm in a 5 cm^3 glass tube with 1 ml homogenization buffer (50 mM Tris-HCl, pH 7.4, 150 mM NaCl, 1% Triton X-100, 1 mM PMSF, and a complete protease inhibitor cocktail). Then, brain lysate was sonicated briefly, and the concentration was measured. The same amount of proteins from respective experiment conditions were each diluted by 2% SDS in PBS to 100 μl, and applied onto the membrane. The wells were washed twice with 2% SDS/PBS and vacuum-suctioned for 20 min, thereby aggregate insoluble in SDS being completely and securely trapped. The membranes were then blocked with 5% skim milk and Western blotting was proceeded.

For series [6], the system named is tNhtt-polyQ expression. The series is described as follows: Semi-quantitative PCR of tNhtt-polyQ transgene expression. To be noted: up to 50 μM. In kind it is cell-based, mouse. The procedure:
Total RNA was extracted from the Neuro2a cells using an RNeasy® Mini Kit (QIAGEN) according to the instruction manual. To ensure complete removal of contaminating DNA, genomic DNA was digested with RNase-free DNase I (QIAGEN). The amount of total RNA was quantified based on the absorbance at 260 nm (GeneQuant, Amersham). Using SUPERSCRIPT™III RNase H^− Reverse Transcriptase (Invitrogen), 1 μg of RNA from each sample was transcribed into a cDNA. PCR was performed in a thermal cycler (BIO-RAD). For each primer, a cycle number that gives mid-log phase amplification was first determined, and the gene of interest was then amplified. The PCR product was separated by electrophoresis on 2.5% agarose gel. DNA images were captured by a UV transilluminator (TOYOBO CO., LTD.), and the band intensity was quantified by the ImageJ software (NCBI). Glyceraldehyde-3-phosphate-dehydrogenase (Gapdh) gene was amplified in each PCR experiment to serve as an internal loading control for a change in gene expression level. The PCR primers used in this research are as follows (synthesized by Sigma or Operon; all from 5′ to 3′; F-forward; R-reverse): NHE1-F […] (SEQ ID NO: 1), -R […] (SEQ ID NO: 2); NHE5-F […] (SEQ ID NO: 3), -R […] (SEQ ID NO: 4); NCX1-F […] (SEQ ID NO: 5), -R […] (SEQ ID NO: 6); NCX2-F […] (SEQ ID NO: 7), -R […] (SEQ ID NO: 8); NCX3-F […] (SEQ ID NO: 9), -R […] (SEQ ID NO: 10); BNaC1-F […] […]

For series [7], the system named is tNhtt-polyQ aggregates in native Neuro2a cells. The series is described as follows: tNhtt-polyQ (+/-nls) aggregates in the transient expression system, ArrayScan quantification. To be noted: transient 62 or 150 polyQ +/-nls, 50 μM added 5 hr after transfection, 12 hr.
Procedure: Cells were transiently transfected for 5 hr with the indicated plasmid expressing various length of polyQ (+/−nls), and then 50 μM of benzamil was added. 12 hr later, cells were collected for quantification by the ArrayScan. n=3, *p<0.0001.
For the transient expression of tNhtt-polyQ, in order to avoid interference to transfection efficiency, the test drug was introduced 5 hours after transfection.
(§2) DNA was transiently transfected into the Neuro2a cells using Lipofectamine 2000 (Invitrogen) according to the instruction manual. Generally, for the transient expression of tNhtt-polyQ and ubi-dsRED (or RFP), DNA was transfected in amounts of 200 ng and 70 ng, respectively. […]
(§3) To quantify the percentage of aggregate, the number of RFP or ubi-dsRED cells or the ubi-dsRED intensity, used was an automated fluorescence microscopic imaging system (ArrayScan® VTI HCS Reader) equipped with image analysis modules (BioApplications) that automatically convert images into numerical data for capturing changes in cell size, shape, intensity and other properties thereof in a culturing format. […] To quantify the percentage of aggregates in the cells, in the first protocol, the number of EGFP-positive spots in each field was counted, and in the second protocol, the number of Hoechst-positive nuclei was counted in the same field. […]
For series [8], the system named is R6/2 mice. Put plainly: Filter trap assay of whole brain lysates of R6/2 mice, anti-huntingtin (em48). In kind it is in vivo, mouse. To be noted: whole brain lysate, 8-week-old and 12-week-old, 1 or 5 mg/kg oral. Here is the method:
(§1) HD mouse model R6/2 containing 145 CAG repeats was originally purchased from The Jackson Laboratory. Mice carrying 120-130 CAG repeats (confirmed by PCR) were selected for an in vivo test with benzamil. Benzamil dissolved in water was orally administered in an amount of 5 mg/kg (Ben-5) or 1 mg/kg (Ben-1) once a day six times a week (no administration one day a week) starting from 4 week-old until death. The body weight was measured once a week. […] For the survival distribution, the number of days each mouse survived was recorded, and data collected for all treatments (mice survived for 13 weeks or longer; water, n=8; tg-Ben1, n=10; and tg-Ben5, n=9) were subjected to the Kaplan-Meier analysis followed by log-rank testing. […]
A filter trap assay was performed with a Hybri-Dot manifold (BIO-RAD) and a cellulose acetate membrane filter having a pore size of […] (Advantec). Concisely stated, cells ready for analysis were lysed in the same lysis buffer as that used for the Western blot and sonicated briefly, and the protein concentration were quantified according to the above-mentioned BCA method. […] Then, brain lysate was sonicated briefly, and the concentration was measured. […]

The subject of series [9] is R6/2 mice. Put plainly: Survival of R6/2 mice (Kaplan-Meier, log-rank). Type of series: in vivo, mouse. To be noted: tg-Ben1, 1 mg/kg oral, average ±S.E.M. Here is the method:
as §1, with “week. For a clasping test, mice were suspended by the tail for 30 sec, clasping patterns were graded into the following levels according to the following criteria: 0: no clasping, 1: forelimb clasping only, 2: both forelimb and hindlimb clasping once or twice, 3: 3 times or more clasping for more than 5 sec of both forelimb and hindlimb.” for “week.”
For comparing two samples, an unpaired student's t-test was used. […] For survival rate, a survival distribution curve was plotted with the Kaplan-Meier method, and the survival rate was then calculated with the log-rank testing (all the data were generated with the XLSTAT software). […]

Series [10] is described as follows: Detection in cerebrospinal fluid (CSF). Type of series: in vivo. To be noted: experimental rats.
Series [11] relates to soluble tNhtt-60Q in Neuro2a cells. The series is described as follows: Chase experiment, degradation of soluble tNhtt-polyQ. Type of series: cell-based, mouse. To be noted: 50 μM, Day 0 to Day 4. The procedure:
To determine whether soluble tNhtt-polyQ is degraded faster in the presence of benzamil, a chase experiment was performed, because inducible Neuro2a cells that express tNhtt-60Q were selected. Majority of the tNhtt-60Q remained soluble, and only few aggregates were observed one day after incubation. Concisely stated, Neuro2a cells were first differentiated, and induced to express hrtNhtt-60Q for 24 hours. Ponasterone A was removed thereafter (with dbcAMP maintaining the differentiation status), and the cells were incubated with water (control) or 50 μM benzamil (Day 0) for 4 days (Day 4). The medium was replaced with a fresh medium containing benzamil in the same concentration every 2 days, and cells were collected once a day until Day 4. Cells were then lysed, and expression of soluble tNhtt-60Q was analyzed by Western blot with an anti-huntingtin antibody (anti-em48).

Series [12] deals with proteasome activity in polyQ-bearing Neuro2a cells. Put plainly: ubi-dsRED reporter in tNhtt-polyQ-bearing cells. Type of series: cell-based, mouse. To be noted: Western blotting with anti-RFP antibody; lactacystin 10 μM. A general note: A western blot detects proteins with antibodies after separation by electrophoresis.
Procedure: Neuro2a cells were co-transfected with ubi-dsRED and EGFP expressing (EGFP only, tNhtt-17Q-EGFP or tNhtt-150Q-EGFP) constructs, and 18 hr later, the intensity of ubi-dsRED fluorescence was analyzed by the ArrayScan. […] Each population contained more than 10,000 cells, and distribution between different populations was highly significant. All p<0.0001. […] Lactacystin served as a positive control for UPS blocking.
as §2, §3
Where [13] appears, read: proteasome inhibitor with benzamil, two concentrations.

Where a SMILES comes first, the peptide text is derived from it. The star is where a group is joined. Cbz = O=C(OCc1ccccc1)*

Consider `CC(C)C[C@@H](C=O)NC(=O)[C@H](CC(C)C)NC(=O)[C@H](CC(C)C)NC(=O)OCc1ccccc1` [MG-132, Z-Leu-Leu-Leu-aldehyde] (Cbz-Leu-Leu-Leu-aldehyde), for which the “effect on the disaggregating effect of benzamil” value (“effect” below) in [1] (setting [13]) is “attenuated the disaggregating effect exerted by benzamil”. The ubi-dsRED cell accumulation result in series [2] was “led to ubi-dsRED cell accumulation”.

With `N=C(N)NC(=O)c1nc(Cl)c(N)nc1N` [amiloride], in series [3], the tNhtt-150Qnls-EGFP nuclear aggregates entry is “significantly decreased tNhtt-150Qnls-EGFP nuclear aggregates”. For the same molecule, the “tNhtt-60Q-EGFP and tNhtt-150Q-EGFP cytoplasmic aggregates” value in [3] (induced 1 day, up to 50 μM, dose-dependent) was “decreased tNhtt-60Q-EGFP and tNhtt-150Q-EGFP cytoplasmic aggregates”. Further, the “concentration without significant toxicity” value in series [4] (mouse) is “up to 50 μM”. In addition, in series [5], the “aggregate trapped on cellulose acetate membrane” value is “reduced the amount of aggregate trapped on a cellulose acetate membrane”. Also, the “expression level of tNhtt-16/60/150Q” value in [6] is “did not influence the expression level of tNhtt-16/60/150Q”. Besides, the “decrease of cytoplasmic and nuclear aggregates” value in [7] stood at 40%.

In the case of `NC(=NCc1ccccc1)NC(=O)c1nc(Cl)c(N)nc1N` [benzamil], the “concentration without significant toxicity” value in series [4] (Neuro2a cells, PI staining) is given as “up to 50 μM”. For the same molecule, in series [8], the “decrease of aggregates detected by anti-huntingtin (em48) antibody” value is “more than 30%”. The molecule further registered an average survival period in [9] of 126.1 ± 4.001 days. Besides, the “presence in cerebrospinal fluid (CSF)” value in series [10] is “could be detected and quantified in the cerebrospinal fluid (CSF)”. Moreover, the “half-life of soluble tNhtt-60Q” value in [11] amounted to 92.3 ± 7.68 h. The “decrease of cytoplasmic and nuclear aggregates” value in [7] was determined as 40%.

For the molecule `Cn1cnc(N)c2ncnc1-2` [3-methyladenine], the “effect” value in [1] (5 mM 3-MA together with 5 μM lactacystin) is on record as “completely abolished”.

As to `CC(=O)N[C@@H](CSC(=O)[C@]1([C@@H](O)C(C)C)NC(=O)[C@H](C)[C@@H]1O)C(=O)O` [lactacystin], the “accumulation of ubi-dsRED cells” value in [12] is listed as “greatly increased accumulation of ubi-dsRED cells”. In addition, in [1] (setting [13]), the “effect” value is reported as “attenuated the disaggregating effect exerted by benzamil”.
